Counter-ions that a name gives are not always drawn. Like-named read-outs stand apart in the source and are kept apart here. One block for each molecule: values may come before it.
Key:
[1] = human absorption data; cited from earlier work
rat NHE-3 = biological target: T1, rat NHE-3 (Rattus norvegicus, UniProt P26433); test: Cell-based assay of NHE-3 activity (Pharmacological Test Example 1); conditions: for IC50: read-out: rat NHE-3 Average pIC50 (converted)
T1 construct: expressed in transfected cells; host or cells: Opossum kidney (OK) cells (ATCC), electroporated
T1 sequence (P26433 29-831): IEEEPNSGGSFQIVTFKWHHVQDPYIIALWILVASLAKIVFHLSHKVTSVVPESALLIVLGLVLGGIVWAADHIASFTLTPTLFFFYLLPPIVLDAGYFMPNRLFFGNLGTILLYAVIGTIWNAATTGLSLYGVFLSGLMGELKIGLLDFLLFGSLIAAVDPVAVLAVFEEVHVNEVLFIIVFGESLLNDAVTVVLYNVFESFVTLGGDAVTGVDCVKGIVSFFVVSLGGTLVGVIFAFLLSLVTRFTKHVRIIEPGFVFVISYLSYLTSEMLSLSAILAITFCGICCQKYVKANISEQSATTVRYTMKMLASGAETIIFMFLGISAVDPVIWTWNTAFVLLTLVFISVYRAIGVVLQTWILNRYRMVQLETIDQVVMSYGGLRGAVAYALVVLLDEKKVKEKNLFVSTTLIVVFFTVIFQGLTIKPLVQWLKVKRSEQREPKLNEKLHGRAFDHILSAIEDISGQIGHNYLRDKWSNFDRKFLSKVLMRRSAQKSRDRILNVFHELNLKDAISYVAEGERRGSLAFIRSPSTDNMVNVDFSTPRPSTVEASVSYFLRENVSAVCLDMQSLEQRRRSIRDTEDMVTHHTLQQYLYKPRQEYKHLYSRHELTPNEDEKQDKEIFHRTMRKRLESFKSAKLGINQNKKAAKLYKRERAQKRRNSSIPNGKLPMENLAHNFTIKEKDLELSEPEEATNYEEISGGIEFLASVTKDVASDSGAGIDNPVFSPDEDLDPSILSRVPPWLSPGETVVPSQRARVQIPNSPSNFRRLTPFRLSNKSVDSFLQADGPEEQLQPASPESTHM
In short: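 Na+-dependent H+ exchange tracked with the pH-sensitive dye BCECF in opossum kidney cells transiently expressing rat NHE-3. Intracellular acidification by NH4Cl prepulse, then 10 min in ammonium- and Na+-free HEPES, pH 7.4, room temperature. Initial rates averaged over 3-6 replicates give pIC50.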

fecal water content = test: Pharmacodynamic model: effect of test compounds on fecal water content; type: in vivo, rat; conditions: female Sprague Dawley rats, 3 mg/kg oral, feces collected 16 hrs; for % Fecal water: mean of 6
Procedure: Normal female Sprague Dawlev rats (Charles-River laboratories international, Hollister, Calif.), 7-8 weeks old with body weight 175-200 g were acclimated for at least 3 days before proceeding to experiments. The animals were provided food (Harlan Teklad 2018c) and water ad lib, through the experiment. Animals were randomly grouped with 6 rats per group.
The experiments were initiated by orally dosing test compounds at 3 mg/kg in volume of 10 ml/kg. Rats from control group were gavaged with the same volume of vehicle (water). After dosing, rats were placed in metabolic cages for 16 hrs (overnight). Food and water consumption were monitored. After sixteen hours, feces and urine were collected. The percent of fecal water was measured by weighing fecal samples before and after drying.
Representative data of % fecal water content are shown in Table 12 (data are expressed as means, with 6 animals per data point). The differences between control and treated groups were evaluated by one way ANOVA with Dunnett post tests. Results are significant if p<0.05.

urinary sodium levels = test: Pharmacodynamic model: effect of test compounds on urinary sodium levels; type: in vivo, rat; conditions: rats, several oral dose levels, corrected for sodium intake (FIGS. 3A and 3B)
Procedure: It is anticipated that the reduction of absorption of sodium from the intestine will be reflected in reduced levels of sodium in the urine. To test this, the protocols in Example 13 were repeated, but urine was collected in addition to feces. Urine sodium levels were analyzed by ion chromatography (IC), and the amound of sodium excreted in the urine was corrected for variations in sodium intake by measuring food consumption.

[2] = Determination of compound Cmax and AUC; type: in vivo; conditions: rat; Sprague-Dawley rats, oral gavage, serum 0.5-4 h; actual oral dose (mg/kg) given
In short: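 Sprague-Dawley rats dosed orally by gavage at 2.5 mg/kg; serum sampled at 0.5, 1, 2 and 4 h. Acetonitrile protein precipitation, then LC/MS/MS quantitation against a standard curve.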

[3] = test system: gastrointestinal motility; test: Restoration of gastrointestinal motility in opioid induced constipation (loperamide); type: in vivo, mice; conditions: vehicle oral / loperamide s.c. (0.3 to 6 mg/kg), 30-minute period
[4] = OK cells expressing rat NHE-3, 0-30 uM test compound, 5 uM EIPA

SMILES: OC[C@H]1O[C@@H](O[C@@H]2[C@@H](CO)OC(O)(CO)[C@H]2O)[C@H](O)[C@@H](O)[C@H]1O (mixture of isomers) [lactulose, reference compound]
% FA [1]: 0.6%

SMILES: CN1Cc2c(Cl)cc(Cl)cc2[C@H](c2ccc(S(=O)(=O)NCCOCCOCCNC(=O)CCC(=O)NCCOCCOCCNS(=O)(=O)c3ccc([C@@H]4CN(C)Cc5c(Cl)cc(Cl)cc54)cc3)cc2)C1 (single isomer, unassigned) [Example 200, N1,N4-bis(2-(2-(2-(4-((S or R)-6,8-dichloro-2-methyl-1,2,3,4-tetrahydroisoquinolin-4-yl)phenylsulfonamido)ethoxy)ethoxy)ethyl)succinamide bis-hydrochloride salt]
IC50 (rat NHE-3; [4]): < 100 nM | % Fecal water (% of control) (fecal water content): 124% of control | % Fecal water (fecal water content): 62%

IC50 (rat NHE-3; [4]): < 100 nM
SMILES: CN1Cc2c(Cl)cc(Cl)cc2[C@H](c2ccc(S(=O)(=O)NCCOCCOCCNC(=O)COCC(=O)NCCOCCOCCNS(=O)(=O)c3ccc([C@@H]4CN(C)Cc5c(Cl)cc(Cl)cc54)cc3)cc2)C1 (single isomer, unassigned) [Example 201, 2,2′-oxybis(N-(2-(2-(2-(4-((S or R)-6,8-dichloro-2-methyl-1,2,3,4-tetrahydroisoquinolin-4-yl)phenylsulfonamido)ethoxy)ethoxy)ethyl)acetamide) bis-hydrochloride salt]
% Fecal water (% of control) (fecal water content): 127% of control | % Fecal water (fecal water content): 63% | amount of sodium excreted in the urine (urinary sodium levels): diminishes significantly and dose dependently

IC50 (rat NHE-3; [4]): < 100 nM | AUC [2]: < 15 ng·h/mL | Cmax [2]: < 7 ng/mL
SMILES: CN1Cc2c(Cl)cc(Cl)cc2[C@H](c2cccc(S(=O)(=O)NCCOCCOCCOCCNC(=O)NCCCCNC(=O)NCCOCCOCCOCCNS(=O)(=O)c3cccc([C@@H]4CN(C)Cc5c(Cl)cc(Cl)cc54)c3)c2)C1 (single isomer, unassigned) [Example 244, (S or R)—N,N′-(13,20-dioxo-3,6,9,24,27,30-hexaoxa-12,14,19,21-tetraazadotriacontane-1,32-diyl)bis(3-((S or R)-6,8-dichloro-2-methyl-1,2,3,4-tetrahydroisoquinolin-4-yl)benzenesulfonamide)]
% Fecal water (% of control) (fecal water content): 118% of control | % Fecal water (fecal water content): 61% | amount of sodium excreted in the urine (urinary sodium levels): diminishes significantly and dose dependently

SMILES: CN1Cc2c(Cl)cc(Cl)cc2[C@H](c2ccc(S(=O)(=O)NCCOCCOCCOCCNC(=O)NCCOCCOCCOCCNS(=O)(=O)c3ccc([C@@H]4CN(C)Cc5c(Cl)cc(Cl)cc54)cc3)cc2)C1 (single isomer, unassigned) [Example 250, (S or R)—N,N′-(13-oxo-3,6,9,17,20,23-hexaoxa-12,14-diazapentacosane-1,25-diyl)bis(4-((S or R)-6,8-dichloro-2-methyl-1,2,3,4-tetrahydroisoquinolin-4-yl)benzenesulfonamide)]
IC50 (rat NHE-3): < 100 nM | % Fecal water (% of control) (fecal water content): 120% of control | % Fecal water (fecal water content): 60%

SMILES: CN1Cc2c(Cl)cc(Cl)cc2C(c2ccc(S(=O)(=O)NCCOCCOCCNC(=O)CCC(=O)NCCOCCOCCNS(=O)(=O)c3ccc(C4CN(C)Cc5c(Cl)cc(Cl)cc54)cc3)cc2)C1 (stereo not shown) [Example 177, N1,N4-bis(2-(2-(2-(4-(6,8-dichloro-2-methyl-1,2,3,4-tetrahydroisoquinolin-4-yl)phenylsulfonamido)ethoxy)ethoxy)ethyl)succinamide]
rat NHE-3 Average pIC50 (rat NHE-3): >7 | AUC [2]: < 4 ng·h/mL | Cmax [2]: < 3.2 ng/mL | % Fecal water (% of control) (fecal water content): 121% of control | % Fecal water (fecal water content): 60%

rat NHE-3 Average pIC50 (rat NHE-3; [4]): 6 to 7 | AUC [2]: < 2 ng·h/mL | Cmax [2]: < 2 ng/mL
SMILES: CN1Cc2c(Cl)cc(Cl)cc2C(c2ccc(S(=O)(=O)NCCOCCOCCNC(=O)COCC(=O)NCCOCCOCCNS(=O)(=O)c3ccc(C4CN(C)Cc5c(Cl)cc(Cl)cc54)cc3)cc2)C1 (stereo not shown) [Example 178, 2,2′-oxybis(N-(2-(2-(2-(4-(6,8-dichloro-2-methyl-1,2,3,4-tetrahydroisoquinolin-4-yl)phenylsulfonamido)ethoxy)ethoxy)ethyl)acetamide)]
% Fecal water (% of control) (fecal water content): 118% of control | % Fecal water (fecal water content): 59%

SMILES: CN1Cc2c(Cl)cc(Cl)cc2C(c2cccc(S(=O)(=O)NCCOCCOCCNC(=O)c3ccc(C(=O)NCCOCCOCCNS(=O)(=O)c4cccc(C5CN(C)Cc6c(Cl)cc(Cl)cc65)c4)cc3)c2)C1 (stereo not shown) [Example 234, N1,N4-bis(2-(2-(2-(3-(6,8-dichloro-2-methyl-1,2,3,4-tetrahydroisoquinolin-4-yl)phenylsulfonamido)ethoxy)ethoxy)ethyl)terephthalamide]
rat NHE-3 Average pIC50 (rat NHE-3): 5 to 6 | AUC [2]: < 2 ng·h/mL | Cmax [2]: < 2 ng/mL | % Fecal water (% of control) (fecal water content): 117% of control | % Fecal water (fecal water content): 58%

rat NHE-3 Average pIC50 (rat NHE-3; [4]): >7
SMILES: CN1Cc2c(Cl)cc(Cl)cc2C(c2cccc(S(=O)(=O)NCCOCCOCCNC(=O)NCCCCNC(=O)NCCOCCOCCNS(=O)(=O)c3cccc(C4CN(C)Cc5c(Cl)cc(Cl)cc54)c3)c2)C1 (stereo not shown) [Example 236, N,N′-(10,17-dioxo-3,6,21,24-tetraoxa-9,11,16,18-tetraazahexacosane-1,26-diyl)bis(3-(6,8-dichloro-2-methyl-1,2,3,4-tetrahydroisoquinolin-4-yl)benzenesulfonamide)]
% Fecal water (% of control) (fecal water content): 128% of control | % Fecal water (fecal water content): 64%

rat NHE-3 Average pIC50 (rat NHE-3; [4]): >7
SMILES: CN1Cc2c(Cl)cc(Cl)cc2C(c2cccc(S(=O)(=O)NCCOCCOCCNC(=O)Nc3ccc(NC(=O)NCCOCCOCCNS(=O)(=O)c4cccc(C5CN(C)Cc6c(Cl)cc(Cl)cc65)c4)cc3)c2)C1 (stereo not shown) [Example 237, N,N′-(2,2′-(2,2′-(2,2′-(1,4-phenylenebis(azanediyl))bis(oxomethylene)bis(azanediyl)bis(ethane-2,1-diyl))bis(oxy)bis(ethane-2,1-diyl))bis(oxy)bis(ethane-2,1-diyl))bis(3-(6,8-dichloro-2-methyl-1,2,3,4-tetrahydroisoquinolin-4-yl)benzenesulfonamide)]
% Fecal water (% of control) (fecal water content): 120% of control | % Fecal water (fecal water content): 60%

SMILES: C=CCc1ccccc1OCC(O)CNC(C)C (stereo not shown) [alprenolol]
% FA [1]: 96%

SMILES: O=C(O)P(=O)(O)O [foscarnet]
% FA [1]: 17%

SMILES: CN(C)C(=O)C(CCN1CCC(O)(c2ccc(Cl)cc2)CC1)(c1ccccc1)c1ccccc1 [loperamide, reference compound]
length of the small intestine travelled by the Evans Blue dye front [3]: ~25%

SMILES: OC[C@@H](O)[C@@H](O)[C@H](O)[C@H](O)CO [mannitol, Mannitol, reference compound]
% FA [1]: 26%

SMILES: Cc1ccccc1N1C(=O)c2cc(S(N)(=O)=O)c(Cl)cc2NC1C (stereo not shown) [metolazone, Metolazone, reference compound]
% FA [1]: 64%

SMILES: O=C(O)c1cc(/N=N/c2ccc(O)c(C(=O)O)c2)ccc1O [olsalazine]
% FA [1]: 2.3%

SMILES: C=CCOc1ccccc1OCC(O)CNC(C)C (stereo not shown) [oxprenolol]
% FA [1]: 97%

SMILES: Cc1cc(=O)n(-c2ccccc2)n1C [phenazone]
% FA [1]: 97%

SMILES: CC(C)NCC(O)COc1cccc2[nH]ccc12 (stereo not shown) [pindolol]
% FA [1]: 92%

SMILES: CC(=O)Nc1ccc(OCC(O)CNC(C)C)cc1 (stereo not shown) [practolol]
% FA [1]: 95%

SMILES: OC[C@H]1O[C@H](OC[C@H]2O[C@H](O[C@]3(CO)O[C@H](CO)[C@@H](O)[C@@H]3O)[C@H](O)[C@@H](O)[C@@H]2O)[C@H](O)[C@@H](O)[C@H]1O [raffinose]
% FA [1]: 0.3%

SMILES: O=C(O)c1cc(/N=N/c2ccc(S(=O)(=O)Nc3ccccn3)cc2)ccc1O [sulfasalazine, reference compound]
% FA [1]: 12%

SMILES: CCN1CCCC1CNC(=O)c1cc(S(N)(=O)=O)ccc1OC (stereo not shown) [sulpiride]
% FA [1]: 36%

SMILES: NC[C@H]1CC[C@H](C(=O)O)CC1 [tranexamic acid]
% FA [1]: 55%

Reference: patent US20190374533A1, “COMPOUNDS AND METHODS FOR INHIBITING NHE-MEDIATED ANTIPORT IN THE TREATMENT OF DISORDERS ASSOCIATED WITH FLUID RETENTION OR SALT OVERLOAD AND GASTROINTESTINAL TRACT DISORDERS” (Ardelyx, Inc., priority 2008, published 2019)
